In patent US11319315B2, “Cyclohexyl acid triazole azoles as LPA antagonists” (BRISTOL-MYERS SQUIBB COMPANY, priority 2017, dated 2022):
pIC50: −log10 of the molar value. Read-outs that look alike come from different tables or passages of the source.

Target: T1, human LPA1 (Homo sapiens, UniProt Q92633)
T1 construct: expressed in transfected cells; host or cells: Chinese hamster ovary (CHO) cells
Assay: LPA1 functional antagonist assay (LPA-induced calcium flux in CHO cells overexpressing human LPA1)
Assay type: cell-based
Conditions: read-out: hLPA1 IC50
Method in brief: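 CHO cells overexpressing human LPA1, dye-loaded 30 min at 37 °C, then given compound (0.08 nM–5 μM final, 0.5% DMSO) in HBSS/20 mM HEPES/0.1% fatty-acid-free BSA for 20 min at room temperature before 10 nM LPA. IC50 as 50% inhibition of LPA-evoked calcium flux, 4-parameter logistic fit.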

[1] = inhibition of calcium flux induced by 10 nM LPA, CHO cells overexpressing human LPA1

T1 sequence (Q92633 whole entry): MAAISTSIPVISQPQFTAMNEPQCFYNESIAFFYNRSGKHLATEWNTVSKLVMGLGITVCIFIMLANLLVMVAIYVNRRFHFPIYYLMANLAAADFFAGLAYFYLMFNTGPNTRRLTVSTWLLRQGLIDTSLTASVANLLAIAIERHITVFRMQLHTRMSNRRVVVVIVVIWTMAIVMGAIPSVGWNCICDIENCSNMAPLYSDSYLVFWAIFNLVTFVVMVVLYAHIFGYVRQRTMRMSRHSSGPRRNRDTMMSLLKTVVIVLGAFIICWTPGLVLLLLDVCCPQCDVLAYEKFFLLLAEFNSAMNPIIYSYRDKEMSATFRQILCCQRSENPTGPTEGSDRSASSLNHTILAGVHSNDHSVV

pIC50	pIC50 [1]	SMILES
6.52		CCCc1cn(Cc2c(-c3ccc(O[C@H]4CCC[C@H](C(=O)O)C4)c(CC)n3)nnn2C)nn1 [Example 372, (1S,3S)-3-((2-ethyl-6-(1-methyl-5-((4-propyl-1H-1,2,3-triazol-1-yl)methyl)-1H-1,2,3-triazol-4-yl)pyridin-3-yl)oxy)cyclohexane-1-carboxylic acid]
	6.58	Cc1nc(-c2nnn(C)c2CNc2noc(C3CC3)n2)ccc1O[C@H]1CCC[C@H](C(=O)O)C1 [Example 173]
	7.60	Cc1nc(-c2nnn(C)c2CNc2nsc(C(C)C)n2)ccc1O[C@H]1CCC[C@H](C(=O)O)C1 [Example 120]
	5.98	Cc1sc(NCc2c(-c3ccc(O[C@H]4CCC[C@H](C(=O)O)C4)cn3)nnn2C)nc1-c1ccccn1 [Example 98]
	7.82	Cc1nc(-c2nnn(C)c2Cc2noc(CCC3CC3)n2)ccc1O[C@H]1CCC[C@H](C(=O)O)C1 [Example 231, (1S,3S)-3-((6-(5-((5-(2-cyclopropylethyl)-1,2,4-oxadiazol-3-yl)methyl)-1-methyl-1H-1,2,3-triazol-4-yl)-2-methylpyridin-3-yl)oxy)cyclohexane-1-carboxylic acid]
	6.81	Cc1nc(-c2nnn(C)c2Cn2nnnc2CC2CCCC2)ccc1O[C@H]1CCC[C@H](C(=O)O)C1 [Example 315, (1S,3S)-3-{[6-(5-{[5-(cyclopentyl-methyl)-1H-1,2,3,4-tetrazol-1-yl]methyl}-1-methyl-1H-1,2,3-triazol-4-yl)-2-methylpyridin-3-yl]oxy}cyclohexane-1-carboxylic acid]
	8.04	Cc1nc(-c2nnn(C)c2CNc2noc(CCCC(F)(F)F)n2)ccc1O[C@H]1CCC[C@H](C(=O)O)C1 [Example 177]
6.50		Cc1ccccc1-n1nnc(NCc2c(-c3ccc(O[C@H]4CCC[C@H](C(=O)O)C4)c(C)n3)nnn2C)n1 [Example 381, (1S,3S)-3-((2-methyl-6-(1-methyl-5-(((2-(o-tolyl)-2H-tetrazol-5-yl)amino)methyl)-1H-1,2,3-triazol-4-yl)pyridin-3-yl)oxy)cyclohexane-1-carboxylic acid]
	7.22	Cn1nnc(-c2ccc(O[C@H]3CCC[C@H](C(=O)O)C3)c(C#N)n2)c1Cn1cc(CC2CCCC2)nn1 [Example 93]
	8.70	Cc1nc(-c2nnn(C)c2Cc2noc(CCC(C)(F)F)n2)ccc1O[C@H]1CCC[C@H](C(=O)O)C1 [Example 227, (1 S,3 S)-3-((6-(5-((5-(3,3-difluorobutyl)-1,2,4-oxadiazol-3-yl)methyl)-1-methyl-1H-1,2,3-triazol-4-yl)-2-methylpyridin-3-yl)oxy)cyclohexane-1-carboxylic acid]
	6.97	CCc1cnc(NCc2c(-c3ccc(O[C@H]4CCC[C@H](C(=O)O)C4)c(C)n3)nnn2C)o1 [Example 19]
	8.10	CCc1nc(-c2nnn(C)c2Cn2cc(CC3CC3)nn2)ccc1O[C@H]1CCC[C@H](C(=O)O)C1 [Example 97]
	7.28	Cc1nc(-c2nnn(C)c2CNc2nc(CC(C)C)no2)ccc1O[C@H]1CCC[C@H](C(=O)O)C1 [Example 157]
	6.72	Cc1nc(-c2nnn(C)c2Cn2cnc(CC3CC3)n2)ccc1O[C@H]1CCC[C@H](C(=O)O)C1 [Example 210]
5.72		Cn1nnc(-c2ncc(O[C@H]3CCC[C@H](C(=O)O)C3)cc2F)c1CNc1noc(CCC2CC2)n1 [Example 409, (1S,3S)-3-((6-(5-(((5-(2-cyclopropylethyl)-1,2,4-oxadiazol-3-yl)amino)methyl)-1-methyl-1H-1,2,3-triazol-4-yl)-5-fluoropyridin-3-yl)oxy)cyclohexane-1-carboxylic acid]
	7.23	CCCC(C)c1nc(NCc2c(-c3ccc(O[C@H]4CCC[C@H](C(=O)O)C4)cn3)nnn2C)no1 (mixture of isomers) [Example 291, (1S,3S)-3-((6-(1-methyl-5-(((5-(pentan-2-yl)-1,2,4-oxadiazol-3-yl)amino)methyl)-1H-1,2,3-triazol-4-yl)pyridin-3-yl)oxy)cyclohexane-1-carboxylic acid, racemate]
	7.49	Cc1nc(-c2nnn(C)c2Cn2nnc(C3CCC3)n2)ccc1O[C@H]1CCC[C@H](C(=O)O)C1 [Example 355, (1S,3S)-3-[(6-{5-[(5-cyclobutyl-2H-1,2,3,4-tetrazol-2-yl)methyl]-1-methyl-1H-1,2,3-triazol-4-yl}-2-methylpyridin-3-yl)oxy]cyclohexane-1-carboxylic acid]
	7.15	CCCCn1cnc(OCc2c(-c3ccc(O[C@H]4CCC[C@H](C(=O)O)C4)c(C)n3)nnn2C)n1 [Example 141]
	6.23	Cc1nc(-c2nnn(C)c2CNc2nnc(C(F)(F)F)o2)ccc1O[C@H]1CCC[C@H](C(=O)O)C1 [Example 47]

pIC50	pIC50 [1]	SMILES
	5.70	COc1cccc(Cc2noc(Cc3c(-c4ccc(O[C@H]5CCC[C@H](C(=O)O)C5)c(C)n4)nnn3C)n2)c1 [Example 242, (1S,3S)-3-((6-(5-((3-(3-methoxy-benzyl)-1,2,4-oxadiazol-5-yl)methyl)-1-methyl-1H-1,2,3-triazol-4-yl)-2-methylpyridin-3-yl)oxy)cyclohexane-1-carboxylic acid]
	7.40	Cc1nc(-c2nnn(C)c2Cn2cc(CC3CC3)nn2)ccc1O[C@H]1CCC[C@H](C(=O)O)C1 [Example 265, (1S,3S)-3-((6-(5-((4-(cyclopropyl-methyl)-1H-1,2,3-triazol-1-yl)methyl)-1-methyl-1H-1,2,3-triazol-4-yl)-2-methylpyridin-3-yl)oxy)cyclohexane-1-carboxylic acid]
6.80		Cc1ccc(-n2nnc(NCc3c(-c4ccc(O[C@H]5CCC[C@H](C(=O)O)C5)c(C)n4)nnn3C)n2)cc1 [Example 385, (1S,3S)-3-((2-methyl-6-(1-methyl-5-(((2-(p-tolyl)-2H-tetrazol-5-yl)amino)methyl)-1H-1,2,3-triazol-4-yl)pyridin-3-yl)oxy)cyclohexane-1-carboxylic acid]
	7.21	Cc1nc(-c2nnn(C)c2Cc2nc(COC(C)C)no2)ccc1O[C@H]1CCC[C@H](C(=O)O)C1 [Example 248, (1S,3S)-3-((6-(5-((3-(isopropoxy-methyl)-1,2,4-oxadiazol-5-yl)methyl)-1-methyl-1H-1,2,3-triazol-4-yl)-2-methylpyridin-3-yl)oxy)cyclohexane-1-carboxylic acid]
	6.15	CCCn1cc(NCc2c(-c3ccc(O[C@H]4CCC[C@H](C(=O)O)C4)c(C)n3)nnn2C)nn1 [Example 11]
	7.74	Cc1nc(-c2nnn(C)c2CNc2nsc(-c3ccccc3)n2)ccc1O[C@H]1CCC[C@H](C(=O)O)C1 [Example 6]
	7.66	Cc1nc(-c2nnn(C)c2Cn2nnc(OCCC3CC3)n2)ccc1O[C@H]1CCC[C@H](C(=O)O)C1 [Example 316, (1 S,3S)-3-((6-(5-((5-(2-cyclopropylethoxy)-2H-tetrazol-2-yl)methyl)-1-methyl-1H-1,2,3-triazol-4-yl)-2-methylpyridin-3-yl)oxy)cyclohexane-1-carboxylic acid]
6.44		COCCCOc1nnn(Cc2c(-c3ccc(O[C@H]4CCC[C@H](C(=O)O)C4)c(C)n3)nnn2C)n1 [Example 404, (1S,3S)-3-{[6-(5-{[5-(3-methoxy-propoxy)-2H-1,2,3,4-tetrazol-2-yl]methyl}-1-methyl-1H-1,2,3-triazol-4-yl)-2-methylpyridin-3-yl]oxy}cyclohexane-1-carboxylic acid]
	7.54	Cc1nc(-c2nnn(C)c2Cn2nnc(CC3CC3)n2)ccc1O[C@H]1CCC[C@H](C(=O)O)C1 [Example 105, (1 S,3 S)-3-((6-(5-((5-(cyclopropylmethyl)-2H-tetrazol-2-yl)methyl)-1-methyl-1H-1,2,3-triazol-4-yl)-2-methylpyridin-3-yl)oxy)cyclohexane-1-carboxylic acid]
	7.09	CCCc1noc(Cc2c(-c3ccc(O[C@H]4CCC[C@H](C(=O)O)C4)c(C)n3)nnn2C)n1 [Example 247, (1S,3S)-3-((2-methyl-6-(1-methyl-5-((3-propyl-1,2,4-oxadiazol-5-yl)methyl)-1H-1,2,3-triazol-4-yl)pyridin-3-yl)oxy)cyclohexane-1-carboxylic acid]
	5.96	Cc1nc(-c2nnn(C)c2Cn2ncnc2C2CC2)ccc1O[C@H]1CCC[C@H](C(=O)O)C1 [Example 206]
	6.54	Cc1nc(-c2nnn(C)c2Cc2nnc(-c3ccccc3)o2)ccc1O[C@H]1CCC[C@H](C(=O)O)C1 [Example 76]
	6.91	CCCCc1nc(NCc2c(-c3ccc(O[C@H]4CCC[C@H](C(=O)O)C4)cn3)nnn2C)no1 [Example 287, (1S,3S)-3-((6-(5-(((5-butyl-1,2,4-oxadiazol-3-yl)amino)methyl)-1-methyl-1H-1,2,3-triazol-4-yl)pyridin-3-yl)oxy)cyclohexane-1-carboxylic acid]
6.85		COCCOc1nnn(Cc2c(-c3ccc(O[C@H]4CCC[C@H](C(=O)O)C4)c(C)n3)nnn2C)n1 [Example 407, (1S,3S)-3-{[6-(5-{[5-(2-methoxy-ethoxy)-2H-1,2,3,4-tetrazol-2-yl]methyl}-1-methyl-1H-1,2,3-triazol-4-yl)-2-methylpyridin-3-yl]oxy}cyclohexane-1-carboxylic acid]
	7.51	Cc1nc(-c2nnn(C)c2CNc2noc(CCC(C)F)n2)ccc1O[C@H]1CCC[C@H](C(=O)O)C1 (stereo partly shown) [Example 200]
	6.49	CC(C)c1nc(NCc2c(-c3ccc(O[C@H]4CCC[C@H](C(=O)O)C4)cn3)nnn2C)ns1 [Example 137]
	6.44	Cc1nc(-c2nnn(C)c2Cn2cc(C(O)c3ccccc3)nn2)ccc1O[C@H]1CCC[C@H](C(=O)O)C1 (stereo partly shown) [Example 87]
6.56		Cc1nc(-c2nnn(C)c2Cn2nnc(N(C)Cc3ccccc3)n2)ccc1O[C@H]1CCC[C@H](C(=O)O)C1 [Example 364, (1S,3S)-3-((6-(5-((5-(benzyl(methyl)amino)-2H-tetrazol-2-yl)methyl)-1-methyl-1H-1,2,3-triazol-4-yl)-2-methylpyridin-3-yl)oxy)cyclohexane-1-carboxylic acid]
